ChEMBL document CHEMBL1131172 (J Med Chem, 1998)
Each block holds one compound with its values, some of them ahead of it.

How the values were obtained:
Dihydrofolate reductase [1] = target: T1, Dihydrofolate reductase (Rattus norvegicus, UniProt Q920D2)
T1 sequence (Q920D2 whole entry): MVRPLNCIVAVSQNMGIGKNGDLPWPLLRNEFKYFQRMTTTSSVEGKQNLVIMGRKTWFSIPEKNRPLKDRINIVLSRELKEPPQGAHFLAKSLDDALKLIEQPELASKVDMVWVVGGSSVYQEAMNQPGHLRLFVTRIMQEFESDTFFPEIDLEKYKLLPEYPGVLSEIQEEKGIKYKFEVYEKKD
Description: Inhibitory activity against dihydrofolate reductase (DHFR) from rat liver

[2] = target: T2, Bifunctional dihydrofolate reductase-thymidylate synthase (Toxoplasma gondii, UniProt Q07422)
T2 sequence (Q07422 whole entry): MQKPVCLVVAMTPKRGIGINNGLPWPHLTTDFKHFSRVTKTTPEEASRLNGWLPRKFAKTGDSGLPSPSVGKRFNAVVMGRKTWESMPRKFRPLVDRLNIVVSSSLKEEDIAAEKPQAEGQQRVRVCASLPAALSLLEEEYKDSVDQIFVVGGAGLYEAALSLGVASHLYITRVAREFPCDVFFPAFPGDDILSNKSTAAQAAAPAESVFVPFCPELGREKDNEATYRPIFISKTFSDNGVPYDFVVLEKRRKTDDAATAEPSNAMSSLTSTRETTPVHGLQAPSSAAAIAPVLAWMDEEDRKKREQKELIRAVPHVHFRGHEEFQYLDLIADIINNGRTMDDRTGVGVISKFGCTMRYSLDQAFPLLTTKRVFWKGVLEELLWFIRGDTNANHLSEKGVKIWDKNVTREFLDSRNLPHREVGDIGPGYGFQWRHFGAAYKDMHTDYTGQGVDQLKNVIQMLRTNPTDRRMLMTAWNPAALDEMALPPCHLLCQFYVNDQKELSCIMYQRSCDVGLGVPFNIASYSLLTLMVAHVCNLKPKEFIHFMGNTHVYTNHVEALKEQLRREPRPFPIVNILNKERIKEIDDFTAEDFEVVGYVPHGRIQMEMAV
Description: Inhibitory activity against dihydrofolate reductase (DHFR) from Toxoplasma gondii

Dihydrofolate reductase [3] = target: T3, Dihydrofolate reductase (Pneumocystis carinii, UniProt P16184)
T3 sequence (P16184 whole entry): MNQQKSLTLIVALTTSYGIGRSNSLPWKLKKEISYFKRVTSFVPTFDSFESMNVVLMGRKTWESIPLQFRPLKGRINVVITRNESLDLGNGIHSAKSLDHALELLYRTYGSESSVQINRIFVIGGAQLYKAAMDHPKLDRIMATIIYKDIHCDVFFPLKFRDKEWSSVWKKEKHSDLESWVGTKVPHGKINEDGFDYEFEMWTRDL
Description: Inhibitory activity against dihydrofolate reductase (DHFR) from Pneumocystis carinii

IGROV-1 = assay: inhibition of the growth of ovarian cancer(IGROVI) cell line; format: functional; settings: Homo sapiens
A549 = assay: inhibition of the growth of non-small-cell lung cancer (A549/ATCC) cell line; format: functional; settings: Homo sapiens
RPMI-8226 = assay: inhibition of the growth of leukemia (RPMI-8226) cell line; format: functional; settings: Homo sapiens
NCI-H23 = assay: inhibition of the growth of non-small-cell lung cancer (NCI-H23) cell line; format: functional; settings: Homo sapiens
MDA-N = assay: inhibition of the growth of breast cancer(MDA-N) cell line; format: functional; settings: Homo sapiens
HCT-116 = assay: inhibition of the growth of colon cancer(HCT116) cell line; format: functional; settings: Homo sapiens
MOLT-4 = assay: inhibition of the growth of leukemia (MOLT-4) cell line; format: functional; settings: Homo sapiens
HCT-15 = assay: inhibition of the growth of colon cancer(HCT-15) cell line; format: functional; settings: Homo sapiens
UO-31 [4] = assay: Inhibition of the growth of renal cancer(UO-31) cell line at 0.01 uM; format: functional; settings: Homo sapiens
NCI-H522 = assay: inhibition of the growth of non-small-cell lung cancer (NCI-H522) cell line; format: functional; settings: Homo sapiens
SR = assay: inhibition of the growth of leukemia(SR) cell line; format: functional; settings: Homo sapiens
MDA-MB-435 = assay: inhibition of the growth of breast cancer (MDA-MB-435) cell line; format: functional; settings: Homo sapiens
SF-268 = assay: inhibition of the growth of CNS cancer(SF-268) cell line; format: functional; settings: Homo sapiens
CAKI-1 = assay: inhibition of the growth of renal cancer(CAKI-1) cell line; format: functional; settings: Homo sapiens
SF-539 = assay: inhibition of the growth of CNS cancer(SF-539) cell line; format: functional; settings: Homo sapiens
786-0 = assay: inhibition of the growth of renal cancer(786-0) cell line; format: functional; settings: Homo sapiens
SNB-19 = assay: inhibition of the growth of CNS cancer(SNB-19) cell line; format: functional; settings: Homo sapiens
OVCAR-8 = assay: inhibition of the growth of ovarian cancer(OVCAR-8) cell line; format: functional; settings: Homo sapiens
NCI-H322M = assay: inhibition of the growth of non-small-cell lung cancer (NCI-H322M) cell line; format: functional; settings: Homo sapiens
UO-31 [5] = assay: inhibition of the growth of renal cancer(UO-31) cell line; format: functional; settings: Homo sapiens
MCF7 = assay: inhibition of the growth of breast cancer (MCF-7) cell line; format: functional; settings: Homo sapiens
M14 = assay: inhibition of the growth of melanoma cancer (M14) cell line; format: functional; settings: Homo sapiens
DU-145 = assay: inhibition of the growth of prostate cancer(DU-145) cell line; format: functional; settings: Homo sapiens
SF-295 = assay: inhibition of the growth of CNS cancer(SF-295) cell line; format: functional; settings: Homo sapiens
NCI-H460 = assay: inhibition of the growth of non-small-cell lung cancer (NCI-H460) cell line; format: functional; settings: Homo sapiens
NCI/ADR-RES = assay: inhibition of the growth of breast cancer (MCF7/ADR-RES) cell line; format: functional; settings: Homo sapiens
SK-MEL-5 = assay: inhibition of the growth of melanoma cancer (SK-MEL-5) cell line; format: functional; settings: Homo sapiens
KM12 = assay: inhibition of the growth of colon cancer(KM-12) cell line; format: functional; settings: Homo sapiens

SMILES: COc1ccc(Sc2ccc3nc(N)nc(N)c3n2)cc1OC
IC50 (Dihydrofolate reductase [1]): 18 nM | IC50 [2]: 19 nM | IC50 (Dihydrofolate reductase [3]): 86 nM

SMILES: COc1ccccc1Sc1ccc2nc(N)nc(N)c2n1
IC50 (Dihydrofolate reductase [1]): 230 nM | IC50 [2]: 58 nM | IC50 (Dihydrofolate reductase [3]): 2200 nM

SMILES: COc1ccc(OC)c(Nc2ccc3nc(N)nc(N)c3n2)c1
IC50 (Dihydrofolate reductase [1]): 3600 nM | IC50 [2]: 730 nM

SMILES: COc1cc(Nc2ccc3nc(N)nc(N)c3n2)cc(OC)c1OC
IC50 (Dihydrofolate reductase [1]): 3200 nM | IC50 [2]: 2400 nM | IC50 (Dihydrofolate reductase [3]): 25900 nM

SMILES: CN(c1ccc2nc(N)nc(N)c2n1)c1cccc2ccccc12
IC50 (Dihydrofolate reductase [1]): 3300 nM | IC50 [2]: 2100 nM

SMILES: COc1ccc(Sc2ccc3nc(N)nc(N)c3n2)cc1
IC50 (Dihydrofolate reductase [1]): 75 nM | IC50 [2]: 45 nM | IC50 (Dihydrofolate reductase [3]): 700 nM

SMILES: COc1cc(CNc2ccc3nc(N)nc(N)c3n2)cc(OC)c1OC
IC50 (Dihydrofolate reductase [1]): 1400 nM | IC50 [2]: 490 nM

SMILES: COc1ccccc1S(=O)(=O)c1ccc2nc(N)nc(N)c2n1
IC50 (Dihydrofolate reductase [1]): 1400 nM | IC50 [2]: 210 nM | IC50 (Dihydrofolate reductase [3]): 3200 nM

SMILES: COc1ccc(S(=O)(=O)c2ccc3nc(N)nc(N)c3n2)cc1OC
IC50 (Dihydrofolate reductase [1]): 880 nM | IC50 [2]: 940 nM | IC50 (Dihydrofolate reductase [3]): 2700 nM

SMILES: COc1ccc(S(=O)(=O)c2ccc3nc(N)nc(N)c3n2)cc1
IC50 (Dihydrofolate reductase [1]): 2000 nM | IC50 [2]: 1000 nM

Further lines, with some results ahead:

GI50 (A549): 640 nM | GI50 (RPMI-8226): 670 nM | GI50 (NCI-H23): 3670 nM | GI50 (HCT-116): 510 nM | GI50 (MOLT-4): 2180 nM | GI50 (HCT-15): 850 nM | GI50 (NCI-H522): 4260 nM | GI50 (MDA-MB-435): 570 nM | IC50 (Dihydrofolate reductase [1]): 430 nM | GI50 (786-0): 890 nM | GI50 (OVCAR-8): 990 nM | GI50 (NCI-H322M): 8020 nM | GI50 (MCF7): 6450 nM | GI50 (DU-145): 4990 nM | GI50 (NCI-H460): 430 nM | IC50 (Dihydrofolate reductase [3]): 8300 nM | GI50 (SK-MEL-5): 830 nM
SMILES: Nc1nc(N)c2nc(Nc3ccccc3)ccc2n1
GI50 (IGROV-1): 3270 nM | GI50 (MDA-N): 680 nM | inhibition at 0.01 µM (UO-31 [4]): 57% | GI50 (SR): 2910 nM | GI50 (SF-268): 6050 nM | GI50 (CAKI-1): 3580 nM | GI50 (SF-539): 2950 nM | GI50 (SNB-19): 1570 nM | GI50 (UO-31 [5]): < 10 nM | GI50 (M14): 1070 nM | GI50 (SF-295): 1430 nM | IC50 [2]: 300 nM | GI50 (NCI/ADR-RES): 2690 nM | GI50 (KM12): 5940 nM

IC50 (Dihydrofolate reductase [1]): 260 nM
SMILES: COc1ccccc1Nc1ccc2nc(N)nc(N)c2n1
IC50 [2]: 460 nM

IC50 (Dihydrofolate reductase [1]): 3800 nM | IC50 (Dihydrofolate reductase [3]): 90400 nM
SMILES: COc1ccc(Nc2ccc3nc(N)nc(N)c3n2)cc1
IC50 [2]: 2800 nM

IC50 (Dihydrofolate reductase [1]): 2000 nM | IC50 (Dihydrofolate reductase [3]): 15000 nM
SMILES: Nc1nc(N)c2nc(Nc3ccc4ccccc4c3)ccc2n1
IC50 [2]: 1100 nM

IC50 (Dihydrofolate reductase [1]): 820 nM
SMILES: Nc1nc(N)c2nc(Nc3ccc(Cl)cc3)ccc2n1
IC50 [2]: 830 nM

IC50 (Dihydrofolate reductase [1]): 1100 nM | IC50 (Dihydrofolate reductase [3]): 40400 nM
SMILES: COc1ccc(Nc2ccc3nc(N)nc(N)c3n2)cc1OC
IC50 [2]: 680 nM
